In patent US10577382B2, “Fused heterocyclic compound” (TAKEDA PHARMACEUTICAL COMPANY LIMITED, priority 2016, dated 2020):

Assays:
[1] = test system: tumor derived from a myelogenous leukemia patient having a mutation in the SF3B1 gene; assay: Antitumor action on tumor-bearing model derived from patient with acute myeloid leukemia having SF3B1 gene mutation; assay type: in vivo; conditions: 50 mg/kg orally twice a day on 2 days per week for 2 weeks; NOG female mice; tumor volume
Description: A tumor derived from a myelogenous leukemia patient having a mutation in the SF3B1 gene was subcutaneously transplanted into mice to establish a clinical tumor model capable of undergoing in vivo passage. A fragment of the tumor was subcutaneously transplanted into a six-week-old NOG female mice (CLEA Japan, Inc.) with a trocar, the tumor diameter of the developed tumor was measured 52 days after the transplantation, and the tumor volume was calculated in accordance with the following expression. Tumor volume=long diameter×short diameter×short diameter×(½)
Individuals with a tumor developed to a tumor volume of about 200 mm^3 were selected, and six mice per group were used for the experiment. A 0.5% methylcellulose solution (Wako Pure Chemical Industries, Ltd.) suspension of the test compound was orally administered at a dose of 50 mg/kg (10 mL/kg) twice a day on 2 days per week for 2 weeks. The tumor volume was chronologically measured on the day before the start of administration and every 3 to 4 days, the tumor diameter was finally measured on the day after completion of administration for 14 days, and the tumor volume was calculated.
The tumor growth in the test compound administration group with respect to the control administration group was calculated as a T/C value in accordance with the following expression. […]

[2] = test system: MDM4 transcription product (MDM4 FL / MDM4 S); assay: In vitro MDM4 alternative splicing ratio in HCT116 cells (quantitative PCR); assay type: cell-based, human; conditions: 300 nM, 6 hours, PSI = MDM4 FL/(MDM4 FL + MDM4 S) x 100, Control (DMSO) 75.75
Description: 1000 μl (20,0000 cells/well) of a cell suspension of human colon adenocarcinoma cells HCT116 (purchased from ATCC) was seeded in a 12-well plate, and cultured at 37° C. for 1 day in a 5% CO2 gas incubator. The test compound solution was added to a final concentration of 300 nM, and the mixture was cultured for 6 hours. The plate was washed with PBS, the cells were then dissolved using RNeasy Mini Kit (QIAGEN), and RNA was extracted. Using cDNA after reverse transcription reaction, the number of copies of the MDM4 transcription product containing exon 6 (MDM4 FL) and the MDM4 transcription product in which exon 6 was skipped (MDM4 S) was measured by quantitative PCR. Primers with the following sequences were used for the measurement.
Primers with the following sequences were used for the measurement.
The following oligos were used for preparing a calibration curve.
A change in MDM4 alternative splicing ratio (PSI) is calculated in accordance with the following expression, and changes caused by the test compound are shown in Table 8. PSI=(number of copies of MDM4 FL÷(number of copies of MDM4 FL+number of copies of MDM4 S))×100

[3] = molecular target: T1, CLK2 enzyme (Homo sapiens, UniProt P49760); assay: Measurement of CLK2 inhibitory activity (LANCE time-resolved fluorescence, ULight-labeled MBP peptide); assay type: biochemical; conditions: compound 1 μM; ATP 1 mM; read-out: CLK2 activity inhibition ratio at compound concentration of 1 μM (ATP 1 mM)
T1 construct: purchased Thermo Fisher Scientific
Description: A test compound dissolved in DMSO was added to a reaction solution (50 mM HEPES (pH: 7.5), 10 mM MgCl2, 1 mM EGTA, 2 mM DTT, 0.01% Tween 20, 0.01% BSA) containing a CLK2 enzyme (Thermo Fisher Scientific) and an ULight-labeled MBP peptide (PerkinElmer), and the mixture was then reacted at room temperature for 10 minutes. An ATP solution was added to a final concentration of 1 mM to initiate an enzyme reaction, and the reaction was carried out at room temperature for 60 minutes. A europium-labeled anti-phosphorylated MBP antibody (PerkinElmer) and a LANCE Detection buffer (PerkinElmer) containing EDTA with a final concentration of 20 mM were added to stop the reaction, the mixture was left standing for 60 minutes, and the time-resolved fluorescence value (excitation 320 nm, and emission 615 nm and 665 nm) was measured by Envision (PerkinElmer). The inhibition ratio (%) of CLK2 by the test compound was calculated in accordance with the following expression. Inhibition ratio (%)=(1−(count of test compound−blank)÷(control−blank))×100
The count of the CLK2 enzyme reaction solution without addition of the compound was described as a control, and the count without addition of the compound and addition of the CLK2 enzyme was described as a blank. The concentration at which the inhibition ratio was 50% was defined as an IC50 value.

[4] = molecular target: T2, phosphorylated CLK2 protein (Ser98) (Homo sapiens, UniProt P49760); assay: In vitro CLK2 phosphorylation inhibitory action in HCT116 cells (western blot); assay type: cell-based; conditions: 300 nM, 16 hours, relative to control group
T2 construct: endogenous in cells; host or cells: HCT116 (ATCC)
Description: 1000 μl (8,0000 cells/well) of a cell suspension of human colon adenocarcinoma cells HCT116 (purchased from ATCC) was seeded in a 12-well plate, and cultured at 37° C. for 2 days in a 5% CO2 gas incubator. The test compound solution was added to a final concentration of 300 nM, and the mixture was cultured for 16 hours. The plate was washed with PBS, a protein extract (10% glycerol, 1% sodium dodecyl sulfate, 62.5 mM Tris-HCl (pH: 7.5)) was then added to dissolve the cells, and the solution was treated at 95° C. for 5 minutes. Thereafter, the amount of protein was determined using BCA Protein Assay Kit (Thermo Fisher Scientific).
The amount of the protein in each sample was adjusted, SDS-PAGE was then performed, and the protein was transferred to a PVDF membrane using an iBlot (registered trademark) gel transfer system (Invitrogen). […] The membrane was washed in the same procedure as described above, a phosphorylated CLK2 protein, a MDM4 protein, a p53 protein and a p21 protein each labeled with an antibody were then made chemiluminescent using ImmunoStar ZETA (Wako Pure Chemical Industries, Ltd.), and luminescence was detected with LAS-3000 Image Analyzer (Fujifilm Corporation). The luminescence intensity was determined using Multi Gauge Ver. 3.1 (Fujifilm Corporation), and quantified. […]

T1 sequence (P49760 whole entry): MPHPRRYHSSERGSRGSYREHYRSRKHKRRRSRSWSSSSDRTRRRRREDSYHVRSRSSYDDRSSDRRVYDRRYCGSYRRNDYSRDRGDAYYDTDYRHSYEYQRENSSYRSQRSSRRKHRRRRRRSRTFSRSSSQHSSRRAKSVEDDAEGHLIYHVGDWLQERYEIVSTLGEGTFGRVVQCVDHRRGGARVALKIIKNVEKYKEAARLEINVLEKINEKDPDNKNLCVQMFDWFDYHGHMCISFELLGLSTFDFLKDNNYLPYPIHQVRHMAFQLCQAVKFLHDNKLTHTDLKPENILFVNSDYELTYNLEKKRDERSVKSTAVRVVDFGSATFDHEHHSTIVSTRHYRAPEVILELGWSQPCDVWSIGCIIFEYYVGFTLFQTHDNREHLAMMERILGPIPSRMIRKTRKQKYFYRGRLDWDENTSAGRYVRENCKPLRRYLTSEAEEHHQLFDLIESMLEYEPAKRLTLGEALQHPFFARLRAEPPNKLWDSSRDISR
T2 sequence (P49760 whole entry): as above

inhibition at 1 µM [3]: 100%
Residual ratio (phosphorylated CLK2) [4]: 71.4%
Structure (SMILES): COc1ncnn2ccc(-c3cnc4nc(C)n(Cc5nnc([C@@H](C)F)o5)c4c3)c12 [Example 286, 1-((5-((1R)-1-fluoroethyl)-1,3,4-oxadiazol-2-yl)methyl)-6-(4-methoxypyrrolo[2,1-f][1,2,4]triazin-5-yl)-2-methyl-1H-imidazo[4,5-b]pyridine]
T/C (%) [1]: −30.4%
PSI (MDM4 alternative splicing ratio) [2]: 45.81
